Assay results reported in patent EP1633390B1, “STABILIZED PHARMACEUTICAL GLP-1 PEPTIDE COMPOSITIONS” (NOVO NORDISK A/S, priority 2003, dated 2012).

Assay: Thioflavin T-test (ThT-test) of physical stability / fibril formation of the formulations
Assay type: physicochemical
Experimental: Physical stability of the formulations is evaluated by means of the Thioflavin T-test. The physical stability of the different formulations is characterized by their tendency to form fibrils. A method to determine the presence of fibrils is the Thioflavin T-test. The histological thiazole dye Thioflavin T (ThT) is used as an indicator of amyloid fibril formation. The method is based on the fluorescent characteristics of ThT. […] The physical stability of the formulations is evaluated by the ThT-test after storage of the formulation is top filled glass cartridges for various time periods.

CCCCCCCCCCCCCCCC(=O)N[C@@H](CCC(=O)NCCCC[C@H](NC(=O)[C@H](C)NC(=O)[C@H](C)NC(=O)[C@H](CCC(N)=O)NC(=O)CNC(=O)[C@H](CCC(=O)O)NC(=O)[C@H](CC(C)C)NC(=O)[C@H](Cc1ccc(O)cc1)NC(=O)[C@H](CO)NC(=O)[C@H](CO)NC(=O)[C@@H](NC(=O)[C@H](CC(=O)O)NC(=O)[C@H](CO)NC(=O)[C@@H](NC(=O)[C@H](Cc1ccccc1)NC(=O)[C@@H](NC(=O)CNC(=O)[C@H](CCC(=O)O)NC(=O)[C@H](C)NC(=O)[C@@H](N)Cc1cnc[nH]1)[C@@H](C)O)[C@@H](C)O)C(C)C)C(=O)N[C@@H](CCC(=O)O)C(=O)N[C@@H](Cc1ccccc1)C(=O)N[C@H](C(=O)N[C@@H](C)C(=O)N[C@@H](Cc1c[nH]c2ccccc12)C(=O)N[C@@H](CC(C)C)C(=O)N[C@H](C(=O)N[C@@H](CCCNC(=N)N)C(=O)NCC(=O)N[C@@H](CCCNC(=N)N)C(=O)NCC(=O)O)C(C)C)[C@@H](C)CC)C(=O)O [Compound 1, Arg^34, Lys^26 (N^∈-(γ-Glu(N^α-hexadecanoyl)))-GLP-1 (7-37)]
physical stability (change in ThT) (Compound 1 adjusted to pH 8.0 before freeze drying, after 1 week and 1 months storage at 37°C): an increase in ThT is seen | physical stability (change in ThT) (Compound 1 adjusted to pH 9.5 and 11.5 before freeze drying, after 1 week and 1 months storage at 37°C): no increase in ThT is seen | physical stability (change in ThT) (formulation manufactured by raising pH above neutral pH (> 8) in the solution containing the drug substance, after 1 month at 37°C): no increase in ThT is seen
